{
  "source": "patent EP0336446A1",
  "about": "“Gene and gene product for the production of beta-lactam-compounds” (BIOCHEMIE GESELLSCHAFT M.B.H., priority 1988, dated 1989)",
  "key": {"PAT [1]": {"biological_target": "T1, PAT (Penicillium chrysogenum, UniProt P15802)", "T1 sequence (P15802 103-357 limits assumed)": "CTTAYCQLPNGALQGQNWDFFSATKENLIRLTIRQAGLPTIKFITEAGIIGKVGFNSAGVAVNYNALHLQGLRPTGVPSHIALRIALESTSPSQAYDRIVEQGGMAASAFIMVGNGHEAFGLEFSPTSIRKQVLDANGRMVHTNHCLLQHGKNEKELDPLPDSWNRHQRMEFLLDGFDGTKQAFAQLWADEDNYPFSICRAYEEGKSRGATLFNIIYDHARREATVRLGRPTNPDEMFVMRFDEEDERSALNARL", "T1 sequence (P15802 1-102 limits assumed)": "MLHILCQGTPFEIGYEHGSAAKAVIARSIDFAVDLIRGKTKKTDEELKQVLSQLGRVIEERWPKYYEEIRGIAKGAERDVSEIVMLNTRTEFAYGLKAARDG", "experiment": "Substrate specificity of purified PAT (fraction AL 278/2), specific enzyme activity by HPLC", "assay_type": "biochemical, Penicillium chrysogenum P2/ATCC 48271"}, "PAT [2]": {"biological_target": "T1, PAT", "experiment": "Microbiological test of 6-APA-PaCoA acyltransferase activity (acylation of 6-APA with PaCoA to Penicillin V), indicator strain Micrococcus luteus ATCC 9341/BC 85", "assay_type": "biochemical, Penicillium chrysogenum P2/ATCC 48271", "settings": "for 6-APA-PaCoA Transacylierungsaktivität (mm HH Ø): Stabilisierung, 5% Sorbit / 1 mM PMSF / 1% BSA / 10% Glycerin / 5% Mannit / 100 µg 6-APA/ml"}, "[3]": {"settings": "labelled substance = Acylakzeptor, Acyldonator PaCoA"}},
  "note": "“And” between values parts separate entries of the source, which are not always exact repeats. Equal values may be shown once.",
  "data": [
    {"compound": "7-Glutaryl-APA", "values": [
      {"measurement": "mittels HPLC bestimmte spezifische Enzymaktivität (mU/mg Protein) A1 278/2", "setting": "PAT [1]; labelled substance = Acyldonator, Acylakzeptor H₂O, Produkt 6-APA", "value": 106, "unit": "mU/mg Protein"}
    ]},
    {"compound": "CC1(C)S[C@@H]2[C@H](N)C(=O)N2[C@H]1C(=O)O", "note": "[6-APA, 6-Aminopenicillansäure]", "values": [
      {"measurement": "Als Vergleich Transacylierung 6-APA + PaCoA → Penicillin V", "setting": "PAT [2]", "value": "17.0 mm and 23.2 mm and 26.9 mm and 25.9 mm"},
      {"measurement": "mittels HPLC bestimmte spezifische Enzymaktivität (mU/mg Protein) A1 278/2", "setting": "PAT [1]; [3]", "value": 393, "unit": "mU/mg Protein"},
      {"measurement": "mittels HPLC bestimmte spezifische Enzymaktivität (mU/mg Protein) A1 278/2", "setting": "PAT [1]; labelled substance = Acylakzeptor, Acyldonator PeCoA", "value": 329, "unit": "mU/mg Protein"}
    ]},
    {"compound": "CC(=O)OCC1=C(C(=O)O)N2C(=O)[C@@H](N)[C@H]2SC1", "note": "[7-ACA]", "values": [
      {"measurement": "mittels HPLC bestimmte spezifische Enzymaktivität (mU/mg Protein) A1 278/2", "setting": "PAT [1]; [3]", "value": 0, "unit": "mU/mg Protein"}
    ]},
    {"compound": "CC1=C(C(=O)O)N2C(=O)[C@@H](N)[C@H]2SC1", "note": "[7-ADCA, 7-Amino-3-desacetoxycephalosporansäure]", "values": [
      {"measurement": "mittels HPLC bestimmte spezifische Enzymaktivität (mU/mg Protein) A1 278/2", "setting": "PAT [1]; [3]", "value": 49, "unit": "mU/mg Protein"}
    ]},
    {"compound": "CC(=O)OCC1=C(C(=O)O)N2C(=O)[C@@H](NC(=O)CCC[C@@H](N)C(=O)O)[C@H]2SC1", "note": "[Cephalosporin C]", "values": [
      {"measurement": "mittels HPLC bestimmte spezifische Enzymaktivität (mU/mg Protein) A1 278/2", "setting": "PAT [1]; [3]", "value": 0, "unit": "mU/mg Protein"}
    ]},
    {"compound": "OCC(O)CO", "note": "[Glycerin]", "values": [
      {"measurement": "6-APA-PaCoA Transacylierungsaktivität (mm HH Ø)", "setting": "PAT [2]; 24 h bei +4°C, reaction 30', control ohne Zusatz Spur", "value": 11.5, "unit": "mm"},
      {"measurement": "6-APA-PaCoA Transacylierungsaktivität (mm HH Ø)", "setting": "PAT [2]; 24 h bei +4°C, reaction sofort, control ohne Zusatz 0", "value": 0, "unit": "mm"},
      {"measurement": "6-APA-PaCoA Transacylierungsaktivität (mm HH Ø)", "setting": "PAT [2]; 24 h bei -20°C, reaction 30', control ohne Zusatz 38", "value": 38, "unit": "mm"},
      {"measurement": "6-APA-PaCoA Transacylierungsaktivität (mm HH Ø)", "setting": "PAT [2]; 24 h bei -20°C, reaction sofort, control ohne Zusatz 15.2", "value": 15.2, "unit": "mm"},
      {"measurement": "6-APA-PaCoA Transacylierungsaktivität (mm HH Ø)", "setting": "PAT [2]; Testung sofort, reaction 30', control ohne Zusatz 33.4", "value": 33.1, "unit": "mm"},
      {"measurement": "6-APA-PaCoA Transacylierungsaktivität (mm HH Ø)", "setting": "PAT [2]; Testung sofort, reaction sofort, control ohne Zusatz 21.5", "value": 22.0, "unit": "mm"}
    ]}
  ]
}
